In the experiment the target is Ba/F3 cell line expressing TYK2 (Homo sapiens, UniProt P29597, cells depend on it, form not given). Nature of the experiment: In vitro cellular inhibition assay (Ba/F3 cell proliferation, CellTiter-Glo). The conditions noted are these: read-out: IC50 (the source's name). Type of experiment: cell-based. As to the method: The inhibitory effect of the compounds of formula (I) according to the present invention on the TYK2 signaling pathway in cells was assessed using the following method:
Instrumentation: SpectraMax Paradigm reader.
Method: in this experiment, a Ba/F3 cell line expressing TYK2 was employed to assess the effect of the compounds on cell proliferation inhibition by measuring their effects on cell activity in vitro.
Procedure: a CellTiter-Glo buffer was thawed and placed aside till room temperature. A CellTiter-Glo substrate was placed aside till room temperature and dissolved with the buffer to prepare a CellTiter-Glo working solution. To a 96-well flat bottom transparent drug plate, 98 μL of cell culture medium and 2 μL of gradient diluted compound solution were added. The drug plate was placed aside for 10 min, and then 50 μL of the CellTiter-Glo working solution was added. The drug plate was subsequently shaken on an orbital shaker for 2 min and placed aside at room temperature for an additional 10 min. Finally, the luminescence signal was measured on the SpectraMax Paradigm reader.
Data Analysis: the cell proliferation inhibition rate data were processed using the following formula:
Inhibition Rate (Inh %)=100−(RLUDrug−RLUMin)/(RLUMax−RLUMin)×100%.
The inhibition rates of compounds with different concentrations were calculated in EXCEL, and then GraphPad Prism software was employed to plot inhibition rate curve and calculate relevant parameters, including maximum and minimum cell inhibition rates, IC50 values.
(In general: Cellular ATP, detected with luciferase, serves as a proxy for viable cell number.)
`[2H]C([2H])([2H])NC(=O)c1nnc(NC(=O)C2CC2)cc1Nc1cccc(C(=O)Nc2ccccc2)c1OC` [Example 1]: the GI50 lay within 5 to 10 nM.
On to `[2H]C([2H])([2H])NC(=O)c1nnc(NC(=O)C2CC2)cc1Nc1cccc(C(=O)Nc2cccc(F)c2)c1OC` [Example 6], for which the GI50 was in the range of 5 to 10 nM.
In the case of `[2H]C([2H])([2H])NC(=O)c1nnc(NC(=O)C2CC2)cc1Nc1cccc(C(=O)Nc2ccccc2F)c1OC` [Example 7] it was 5 to 10 nM.
In the case of `[2H]C([2H])([2H])NC(=O)c1nnc(NC(=O)C2CC2)cc1Nc1cccc(C(=O)Nc2cccc(C)c2C)c1OC` [Example 8] it was 5 to 10 nM; in that of `[2H]C([2H])([2H])NC(=O)c1nnc(NC(=O)C2CC2)cc1Nc1cccc(C(=O)Nc2cc(C)cc(C)c2)c1OC` [Example 9], 5 to 10 nM.
In the case of `[2H]C([2H])([2H])NC(=O)c1nnc(NC(=O)C2CC2)cc1Nc1cccc(C(=O)Nc2ccccc2C)c1OC` [Example 10] it was 5 to 10 nM; in that of `[2H]C([2H])([2H])NC(=O)c1nnc(NC(=O)C2CC2)cc1Nc1cccc(C(=O)Nc2cccc(C3CC3)c2)c1OC` [Example 11], 5 to 10 nM.
As for `[2H]C([2H])([2H])NC(=O)c1nnc(NC(=O)C2CC2)cc1Nc1cccc(C(=O)Nc2cccc(C(F)(F)F)c2)c1OC` [Example 12], the GI50 lay in the range of 5 to 10 nM.
Regarding `[2H]C([2H])([2H])NC(=O)c1nnc(NC(=O)C2CC2)cc1Nc1cccc(C(=O)Nc2cccc(CC)c2)c1OC` [Example 13], the GI50 lay within 5 to 10 nM.
Under `[2H]C([2H])([2H])NC(=O)c1nnc(NC(=O)C2CC2)cc1Nc1cccc(C(=O)Nc2cccc(OC)c2)c1OC` [Example 14] stands 5 to 10 nM.
In the case of `[2H]C([2H])([2H])NC(=O)c1nnc(NC(=O)C2CC2)cc1Nc1cccc(C(=O)Nc2cccc(C#N)c2)c1OC` [Example 15] it was 5 to 10 nM.
In the case of `[2H]C([2H])([2H])NC(=O)c1nnc(NC(=O)C2CC2)cc1Nc1cccc(C(=O)Nc2cccc(C(C)C)c2)c1OC` [Example 16] it was 5 to 10 nM; in that of `[2H]C([2H])([2H])NC(=O)c1nnc(NC(=O)C2CC2)cc1Nc1cccc(C(=O)Nc2cccc(C(C)(C)C)c2)c1OC` [Example 17], 5 to 10 nM; in that of `[2H]C([2H])([2H])NC(=O)c1nnc(NC(=O)C2CC2)cc1Nc1cccc(C(=O)Nc2ccc(CC)cc2)c1OC` [Example 18], 5 to 10 nM.
As to `[2H]C([2H])([2H])NC(=O)c1nnc(NC(=O)C2CC2)cc1Nc1cccc(C(=O)Nc2ccc(C3CC3)cc2)c1OC` [Example 19], the GI50 fell in the range of 5 to 10 nM.
Under `[2H]C([2H])([2H])NC(=O)c1nnc(NC(=O)C2CC2)cc1Nc1cccc(C(=O)Nc2ccc(C(C)C)cc2)c1OC` [Example 20] stands 5 to 10 nM; under `[2H]C([2H])([2H])NC(=O)c1nnc(NC(=O)C2CC2)cc1Nc1cccc(C(=O)Nc2ccc(C(C)(C)C)cc2)c1OC` [Example 21], 5 to 10 nM.
Under `[2H]C([2H])([2H])NC(=O)c1nnc(NC(=O)C2CC2)cc1Nc1cccc(C(=O)Nc2ccc(C(F)(F)F)cc2)c1OC` [Example 22] stands 5 to 10 nM; under `[2H]C([2H])([2H])NC(=O)c1nnc(NC(=O)C2CC2)cc1Nc1cccc(C(=O)Nc2ccc(C#N)cc2)c1OC` [Example 23], 5 to 10 nM.
Under `[2H]C([2H])([2H])NC(=O)c1nnc(NC(=O)C2CC2)cc1Nc1cccc(C(=O)Nc2ccc(OC)cc2)c1OC` [Example 24] stands 5 to 10 nM; under `[2H]C([2H])([2H])NC(=O)c1nnc(NC(=O)C2CC2)cc1Nc1cccc(C(=O)Nc2ccc(CC)c(C)c2)c1OC` [Example 25], 5 to 10 nM.
For `[2H]C([2H])([2H])NC(=O)c1nnc(NC(=O)C2CC2)cc1Nc1cccc(C(=O)Nc2ccc(C3CC3)c(C)c2)c1OC` [Example 26], the GI50 is 5 to 10 nM.
As to `[2H]C([2H])([2H])NC(=O)c1nnc(NC(=O)C2CC2)cc1Nc1cccc(C(=O)Nc2ccc(C(C)C)c(C)c2)c1OC` [Example 27], the GI50 fell in the range of 5 to 10 nM.
Under `[2H]C([2H])([2H])NC(=O)c1nnc(NC(=O)C2CC2)cc1Nc1cccc(C(=O)Nc2ccc(C(C)(C)C)c(C)c2)c1OC` [Example 28] stands 5 to 10 nM.
On to `[2H]C([2H])([2H])NC(=O)c1nnc(NC(=O)C2CC2)cc1Nc1cccc(C(=O)Nc2ccc(C(F)(F)F)c(C)c2)c1OC` [Example 29], for which the GI50 lay within 5 to 10 nM.
On to `[2H]C([2H])([2H])NC(=O)c1nnc(NC(=O)C2CC2)cc1Nc1cccc(C(=O)Nc2ccc(C#N)c(C)c2)c1OC` [Example 30], for which the GI50 lay within 5 to 10 nM.
`[2H]C([2H])([2H])NC(=O)c1nnc(NC(=O)C2CC2)cc1Nc1cccc(C(=O)Nc2ccc(OC)c(C)c2)c1OC` [Example 31]: the GI50 is 5 to 10 nM.
Regarding `[2H]C([2H])([2H])NC(=O)c1nnc(NC(=O)C2CC2)cc1Nc1cccc(C(=O)Nc2ccc(F)c(C)c2)c1OC` [Example 32], the GI50 lay within 5 to 10 nM.
Under `[2H]C([2H])([2H])NC(=O)c1nnc(NC(=O)C2CC2)cc1Nc1cccc(C(=O)Nc2ccn(C)n2)c1OC` [Example 33] stands 5 to 10 nM; under `[2H]C([2H])([2H])NC(=O)c1nnc(NC(=O)C2CC2)cc1Nc1cccc(C(=O)Nc2cn(C)cn2)c1OC` [Example 35], 5 to 10 nM.
In the case of `[2H]C([2H])([2H])NC(=O)c1nnc(NC(=O)C2CC2)cc1Nc1cccc(C(=O)Nc2ncn(C)n2)c1OC` [Example 36] it was 5 to 10 nM; in that of `[2H]C([2H])([2H])NC(=O)c1nnc(NC(=O)C2CC2)cc1Nc1cccc(C(=O)Nc2cc(C)ccn2)c1OC` [Example 37], 5 to 10 nM; in that of `[2H]C([2H])([2H])NC(=O)c1nnc(NC(=O)C2CC2)cc1Nc1cccc(C(=O)Nc2ccnc(C)c2)c1OC` [Example 39], 5 to 10 nM.
With `[2H]C([2H])([2H])NC(=O)c1nnc(NC(=O)C2CC2)cc1Nc1cccc(C(=O)Nc2cccc(C)n2)c1OC` [Example 40], the GI50 lay within 5 to 10 nM.
In the case of `[2H]C([2H])([2H])NC(=O)c1nnc(NC(=O)C2CC2)cc1Nc1cccc(C(=O)Nc2ncc(F)cn2)c1OC` [Example 41] it was 5 to 10 nM; in that of `[2H]C([2H])([2H])NC(=O)c1nnc(NC(=O)C2CC2)cc1Nc1cccc(C(=O)Nc2ccc(C)cn2)c1OC` [Example 43], 5 to 10 nM; in that of `[2H]C([2H])([2H])NC(=O)c1nnc(NC(=O)C2CC2)cc1Nc1cccc(C(=O)Nc2ccc(C)nc2)c1OC` [Example 44], 5 to 10 nM.
Under `[2H]C([2H])([2H])NC(=O)c1nnc(NC(=O)C2CC2)cc1Nc1cccc(C(=O)Nc2ncc(C)cn2)c1OC` [Example 45] stands 5 to 10 nM; under `[2H]C([2H])([2H])NC(=O)c1nnc(NC(=O)C2CC2)cc1Nc1cccc(C(=O)Nc2ccc(F)nc2)c1OC` [Example 46], 5 to 10 nM.
Take `[2H]C([2H])([2H])NC(=O)c1nnc(NC(=O)C2CC2)cc1Nc1cccc(C(=O)Nc2cnc(F)nc2)c1OC` [Example 47]: the GI50 lay within 5 to 10 nM.
In the case of `[2H]C([2H])([2H])NC(=O)c1nnc(NC(=O)C2CC2)cc1Nc1cccc(C(=O)Nc2ccccn2)c1OC` [Example 48] it was 5 to 10 nM; in that of `[2H]C([2H])([2H])NC(=O)c1nnc(NC(=O)C2CC2)cc1Nc1cccc(C(=O)Nc2cccnc2)c1OC` [Example 49], 5 to 10 nM.
For `[2H]C([2H])([2H])NC(=O)c1nnc(NC(=O)C2CC2)cc1Nc1cccc(C(=O)Nc2ccncc2)c1OC` [Example 50], the GI50 is 5 to 10 nM.
In the case of `[2H]C([2H])([2H])NC(=O)c1nnc(NC(=O)C2CC2)cc1Nc1cccc(C(=O)Nc2ncccn2)c1OC` [Example 51], the GI50 lay within 5 to 10 nM.
As to `[2H]C([2H])([2H])NC(=O)c1nnc(NC(=O)C2CC2)cc1Nc1cccc(C(=O)Nc2cncnc2)c1OC` [Example 52], the GI50 is 5 to 10 nM.
On to `[2H]C([2H])([2H])NC(=O)c1cnc(NC(=O)C2CC2)cc1Nc1cccc(C(=O)Nc2ccccc2)c1OC` [Example 53], for which the GI50 lay within 5 to 10 nM.
For `[2H]C([2H])([2H])NC(=O)c1cnc(NC(=O)C2CC2)cc1Nc1cccc(C(=O)Nc2ccccc2C)c1OC` [Example 56], the GI50 is 5 to 10 nM.
Under `[2H]C([2H])([2H])NC(=O)c1cnc(NC(=O)C2CC2)cc1Nc1cccc(C(=O)Nc2cccc(F)c2)c1OC` [Example 58] stands 5 to 10 nM; under `[2H]C([2H])([2H])NC(=O)c1cnc(NC(=O)C2CC2)cc1Nc1cccc(C(=O)Nc2ccccc2F)c1OC` [Example 59], 5 to 10 nM; under `[2H]C([2H])([2H])NC(=O)c1cnc(NC(=O)C2CC2)cc1Nc1cccc(C(=O)Nc2cccc(C)c2C)c1OC` [Example 60], 5 to 10 nM.
Turning to `[2H]C([2H])([2H])NC(=O)c1cnc(NC(=O)C2CC2)cc1Nc1cccc(C(=O)Nc2cc(C)cc(C)c2)c1OC` [Example 61], the GI50 was 5 to 10 nM.
Under `[2H]C([2H])([2H])NC(=O)c1cnc(NC(=O)C2CC2)cc1Nc1cccc(C(=O)Nc2cccc(C3CC3)c2)c1OC` [Example 63] stands 5 to 10 nM; under `[2H]C([2H])([2H])NC(=O)c1cnc(NC(=O)C2CC2)cc1Nc1cccc(C(=O)Nc2cccc(C(F)(F)F)c2)c1OC` [Example 64], 5 to 10 nM; under `[2H]C([2H])([2H])NC(=O)c1cnc(NC(=O)C2CC2)cc1Nc1cccc(C(=O)Nc2cccc(CC)c2)c1OC` [Example 65], 5 to 10 nM.

(Values after patent US20260098017A1, “NOVEL AROMATIC RING DERIVATIVE CONTAINING AMIDE SUBSTITUTION AND USE THEREOF” (TIANJIN PHARMACEUTICAL BIOTECHNOLOGY CO., LTD., priority 2022, published 2026).)
